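The compound was tested at five concentrations on cells cultured in 96-well plates, with a 48-hour exposure period. GI50 = concentration required for 50% inhibition of growth. TGI is the concentration that stops growth completely.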
Legend:
Test in all cases: inhibition of tumour cell growth, NCI panel, 48 h
[1] = system: SK-MEL-2 melanoma
[2] = system: NCI-H522 lung
[3] = system: SF-268 CNS
[4] = system: MDA-MB-435
[5] = system: SR leukemia
[6] = system: SK-MEL-5 melanoma
[7] = system: HCT-15 colon
[8] = system: HT29 colon
[9] = system: NCI-H23 lung
[10] = system: MCF7 breast
[11] = system: A498 renal
[12] = system: UO-31 renal
[13] = system: TK-10 renal
[14] = system: RPMI-8226 leukemia
[15] = system: MOLT-4 leukemia
[16] = system: RXF 393 renal
[17] = system: HOP-62 NSCLC
[18] = system: SW-620 colon
[19] = system: HCC-2998 colon
[20] = system: OVCAR-4 ovarian
[21] = system: MALME-3M melanoma
[22] = system: SNB-19 CNS
[23] = system: CAKI-1 renal
[24] = system: MDA-MB-231 breast
[25] = system: KM12 colon
[26] = system: BT-549 breast
[27] = system: SK-MEL-28 melanoma
[28] = system: NCI-H460 lung
[29] = system: UACC-62 melanoma
[30] = system: OVCAR-3 ovarian
[31] = system: 786-0 renal
[32] = system: PC-3 prostate
[33] = system: UACC-257 melanoma
[34] = system: SF-539 CNS
[35] = system: M14 melanoma
[36] = system: K-562 leukemia
[37] = system: HL-60(TB) leukemia
[38] = system: CCRF-CEM leukemia
[39] = system: IGROV1 ovarian
[40] = system: HOP-92 NSCLC
[41] = system: DU-145 prostate
[42] = system: HCT-116 colon
[43] = system: U251 CNS
[44] = system: HS 578T breast
[45] = system: A549 NSCLC
[46] = system: LOX IMVI melanoma
[47] = system: NCI/ADR-RES ovarian
[48] = system: SN12C renal
[49] = system: T-47D breast
[50] = system: NCI-H226 lung
[51] = system: COLO 205 colon
[52] = system: OVCAR-8 ovarian
[53] = system: OVCAR-5 ovarian
[54] = system: ACHN renal
[55] = system: SF-295 CNS
[56] = system: SNB-75 CNS
[57] = system: SK-OV-3 ovarian

Work on `c1ccc(CSc2nnc3c4c5c(sc4nc(-c4cccnc4)n23)CCCCCC5)cc1` yielded a GI50 [1] of 2.05 µM, a TGI [1] of 6.02 µM and a GI50 [2] of 1.39 µM. The TGI [2] was 5.07 µM, the GI50 [3] was 4.57 µM and the TGI [3] was 17.8 µM. The GI50 [4] was 2.61 µM, the TGI [4] was 9.88 µM and the GI50 [5] was 2.59 µM. The TGI [5] was 10.1 µM, the GI50 [6] was 1.37 µM and the TGI [6] was 2.68 µM. The GI50 [7] was 4.51 µM, the TGI [7] was 17 µM and the GI50 [8] was 2.78 µM. It also gave a TGI [8] of 10.9 µM, a GI50 [9] of 2.74 µM and a TGI [9] of 8.33 µM. The GI50 [10] was 2.64 µM, the TGI [10] was 11.2 µM and the GI50 [11] was 2.24 µM. It also gave a GI50 [12] of 3.73 µM, a TGI [12] of 15.1 µM and a GI50 [13] of 3.83 µM. The TGI [13] was 12.6 µM, the GI50 [14] was 1.87 µM and the TGI [14] was 12.5 µM. It also gave a GI50 [15] of 3 µM, a TGI [15] of 11.3 µM and a GI50 [16] of 2.79 µM. It also gave a TGI [16] of 13.1 µM, a GI50 [17] of 2.96 µM and a TGI [17] of 12.3 µM. The GI50 [18] was 3.09 µM, the TGI [18] was 13.3 µM and the GI50 [19] was 4.21 µM. For the same compound, the TGI [19] was 15.3 µM, the GI50 [20] was 2.08 µM and the TGI [20] was 10.2 µM. For the same compound, the GI50 [21] was 2.76 µM, the TGI [21] was 7.52 µM and the GI50 [22] was 3.96 µM. It also gave a TGI [22] of 16.2 µM, a GI50 [23] of 3.43 µM and a TGI [23] of 15.7 µM. It also gave a GI50 [24] of 2.18 µM, a TGI [24] of 7.15 µM and a GI50 [25] of 2.6 µM. For the same compound, the TGI [25] was 10.5 µM, the GI50 [26] was 2.8 µM and the TGI [26] was 9.04 µM. For the same compound, the GI50 [27] was 3.35 µM, the TGI [27] was 14.1 µM and the GI50 [28] was 2.97 µM. It also gave a TGI [28] of 11.1 µM, a GI50 [29] of 1.91 µM and a TGI [29] of 7.23 µM. For the same compound, the GI50 [30] was 2.86 µM, the TGI [30] was 12.4 µM and the GI50 [31] was 3.63 µM. The TGI [31] was 14.2 µM, the GI50 [32] was 2.36 µM and the TGI [32] was 10.8 µM. For the same compound, the GI50 [33] was 2.12 µM, the TGI [33] was 8.74 µM and the GI50 [34] was 3.51 µM. For the same compound, the TGI [34] was 12.9 µM, the GI50 [35] was 3.75 µM and the TGI [35] was 16.9 µM. The GI50 [36] was 2.34 µM, the TGI [36] was 10.4 µM and the GI50 [37] was 1.84 µM. It also gave a TGI [37] of 5.27 µM, a GI50 [38] of 1.11 µM and a TGI [38] of 15.5 µM. For the same compound, the GI50 [39] was 4.18 µM, the TGI [39] was 19.2 µM and the GI50 [40] was 1.7 µM. For the same compound, the TGI [40] was 7.24 µM, the GI50 [41] was 3.42 µM and the TGI [41] was 14.4 µM. For the same compound, the GI50 [42] was 2.77 µM, the TGI [42] was 11.3 µM and the GI50 [43] was 2.2 µM. It also gave a TGI [43] of 12 µM, a GI50 [44] of 3.84 µM and a TGI [44] of 28.6 µM. It also gave a GI50 [45] of 2.8 µM, a TGI [45] of 13.4 µM and a GI50 [46] of 3.08 µM. For the same compound, the TGI [46] was 11.1 µM, the GI50 [47] was 14.1 µM and the TGI [47] was 38.1 µM. It also gave a GI50 [48] of 2.99 µM, a TGI [48] of 11.8 µM and a GI50 [49] of 0.495 µM. For the same compound, the TGI [49] was 12.3 µM, the GI50 [50] was 2.03 µM and the TGI [50] was 9.96 µM. It also gave a GI50 [51] of 1.55 µM, a TGI [51] of 3.33 µM and a GI50 [52] of 2.86 µM. For the same compound, the TGI [52] was 13.2 µM, the GI50 [53] was 4.99 µM and the TGI [53] was 17.5 µM. It also gave a GI50 [54] of 2.98 µM, a TGI [54] of 10.5 µM and a GI50 [55] of 2.8 µM. The TGI [55] was 11.8 µM, the GI50 [56] was 2.58 µM and the TGI [56] was 10.3 µM. It also gave a GI50 [57] of 2.75 µM and a TGI [57] of 9.54 µM.

From PubChem BioAssay (NCI)
